Patent US12458627B2, “Autotaxin inhibitors and uses thereof” (DF 2024 IP Acquisition, LLC, priority 2015, dated 2025)
One block for each compound: values may come before it.

Key:
human autotaxin = human autotaxin (Homo sapiens (Human), UniProt Q13822); test: Human autotaxin assay; assay type: biochemical; conditions: concentrated conditioned media from Hep3B cells; LPC substrate, choline release
[1] = system: Male Wistar rats, DNBS-induced colitis; test: Rat DNBS-induced acute colitis model; assay type: in vivo
Method: Male Wistar rats weighing 150-160 g are intracolonically administered 0.5 ml of 50 mg/ml DNBS in 30% ethanol on Day 1 or vehicle control. Autotaxin inhibitors are dosed at 5 mpk in 0.5% MC once daily from Day 0 to Day 6. Sulfasalazine is dosed at 300 mpk in 0.5% CMC-Na from Day 1 to Day 7. The rats are monitored for body weight and stool consistency daily. At study termination, colon length, colon weight, ulcer area and Masson's trichrome staining are assessed.

[2] = system: MDA-MB-435S human melanoma line; test: cells; conditions: read-out: IC50 cell migration
Method: The day before the assay, cells are serum-starved overnight in media containing 0.1-0.2% fatty-acid-free BSA. On the day of the assay, the conditioned media is removed from the cells, centrifuged for clarification and set aside. The cells are then harvested by scraping, counted, and pelleted by centrifugation. […] The assays are performed in duplicate using the Neuroprobe 96-well chemotaxis system with 8 m pore size and fibronectin-coated filters. 152 μL cells are added to 8 μL test autotaxin inhibitor compound and incubated for 15 min at 37° C. […] The filters are incubated at 37° C. for 1-24 hours and non-migrated cells removed from the top of the filter by rinsing with PBS and scraping. The filter is air dried then stained before reading the absorbance at 580 nm.

ENPP3 = ENPP3 (Homo sapiens (Human), UniProt O14638); test: In vitro ENPP3 inhibition assay; assay type: biochemical
CDAA/HFD fed mice = test: Mouse CDAA/HFD model of liver fibrosis; assay type: in vivo
Method: Mice are fed a choline deficient diet supplemented with 0.1% methionine and 60% kCal fat (CDAA/HFD) for 12-14 weeks. Mice receive 1, 3, 10, or 30 mpk of autotaxin inhibitor test compound or vehicle starting at the beginning of week 6 after feeding (therapeutically). The following liver enzymes are measured weekly: aspartate transaminase, alkaline phosphatase and bilirubin. At the end of the study, mice are sacrificed and the liver harvested and frozen at −80° C. for the biochemical analysis of liver fibrosis or fixed in neutral-buffered formalin for histological assessment of liver fibrosis. For the biochemical assessment of liver fibrosis, liver tissue homogenates are analyzed for collagen concentration using a hydroxyproline assay. For the histological assessment of liver fibrosis, fixed liver tissue is stained with Picrosirius Red (PSR) stain and severity of liver fibrosis scored using light microscopy. After qualitative scoring of liver fibrosis, quantitation of fibrosis was determined using whole slide images captured at 20× magnification and calculating the percentage of the liver section that was PSR-positive using Indica Labs' Halo® area quantification image analysis software.

[3] = system: C57B16/J male mice fed a high fat diet; test: Glucose tolerance in mice fed a high fat diet; assay type: in vivo, mouse; conditions: 15 mg/kg twice daily for two days prior to sampling and once on the day of sampling
Method: C57B16/J male mice are fed a normal diet until 6-10 weeks of age. […] For determination of blood glucose, mice are administered test compound orally in 0.5% methocel once or twice daily for several days prior to the glucose challenge. On the day of the glucose tolerance test (GTT) mice are fasted for 6-8 hours and a last dose of test compound administered orally 1-3 hours before the intraperitoneal (i.p.) injection of 1 g/kg D-glucose (Sigma). Blood from the tail vein is sampled before the glucose load (baseline glucose) and every 15-30 min over the next 120 min after the glucose challenge to monitor blood glucose concentration. Blood glucose is quantified using a glucose meter (Accu-Chek, Roche Diagnostics or AlphaTRAK, Abbott Animal Health) and plotted vs. time. Total blood glucose area under the curve (AUC) after the i.p. glucose challenge is calculated from the time plot using GraphPad Prism6.

ENPP7 = ENPP7 (Homo sapiens (Human), UniProt Q6UWV6); test: In vitro ENPP7 inhibition assay; assay type: biochemical
[4] = system: Female C57BL/6 mice, DSS-induced colitis; test: Mouse DSS-induced chronic colitis model; assay type: in vivo; conditions: compared to vehicle
Method: Autotaxin inhibitors are dosed at 30, 60 or 100 mpk PO once or twice daily from Day 0 to 63. For a positive control, Cyclosporin A (CsA) is dosed at 25 mpk on Days 1-7, 22-28, and 43-49. Mouse body weight, stool consistency, bleeding and overall Disease Activity Index (DAI) is recorded daily. After 64 days, mouse colons are removed and their length and weights recorded. Colonic sections are stained with hematoxylin and eosin stain (H&E stain) and scored based on inflammatory cell infiltration and tissue damage. Colonic sections are also stained with trichrome and scored for fibrosis.

ENPP6 = ENPP6 (Homo sapiens (Human), UniProt Q6UWR7); test: In vitro ENPP6 inhibition assay; assay type: biochemical
dog = test: Dog liver toxicity study; assay type: in vivo
Method: In some embodiments, liver toxicity can be assessed in suitable in vivo assays. In some embodiments, liver toxicity is assessed by monitoring any increases in the levels of liver markers ALT, AST, AlkP and bilirubin.

ENPP1 = ENPP1 (Homo sapiens (Human), UniProt P22413); test: In vitro ENPP1 inhibition assay; assay type: biochemical
[5] = 5 mpk once daily, DNBS acute colitis
[6] = 5 mpk once daily, similar to sulfasalazine

Sequence of ENPP1 (P22413 whole entry, species assumed): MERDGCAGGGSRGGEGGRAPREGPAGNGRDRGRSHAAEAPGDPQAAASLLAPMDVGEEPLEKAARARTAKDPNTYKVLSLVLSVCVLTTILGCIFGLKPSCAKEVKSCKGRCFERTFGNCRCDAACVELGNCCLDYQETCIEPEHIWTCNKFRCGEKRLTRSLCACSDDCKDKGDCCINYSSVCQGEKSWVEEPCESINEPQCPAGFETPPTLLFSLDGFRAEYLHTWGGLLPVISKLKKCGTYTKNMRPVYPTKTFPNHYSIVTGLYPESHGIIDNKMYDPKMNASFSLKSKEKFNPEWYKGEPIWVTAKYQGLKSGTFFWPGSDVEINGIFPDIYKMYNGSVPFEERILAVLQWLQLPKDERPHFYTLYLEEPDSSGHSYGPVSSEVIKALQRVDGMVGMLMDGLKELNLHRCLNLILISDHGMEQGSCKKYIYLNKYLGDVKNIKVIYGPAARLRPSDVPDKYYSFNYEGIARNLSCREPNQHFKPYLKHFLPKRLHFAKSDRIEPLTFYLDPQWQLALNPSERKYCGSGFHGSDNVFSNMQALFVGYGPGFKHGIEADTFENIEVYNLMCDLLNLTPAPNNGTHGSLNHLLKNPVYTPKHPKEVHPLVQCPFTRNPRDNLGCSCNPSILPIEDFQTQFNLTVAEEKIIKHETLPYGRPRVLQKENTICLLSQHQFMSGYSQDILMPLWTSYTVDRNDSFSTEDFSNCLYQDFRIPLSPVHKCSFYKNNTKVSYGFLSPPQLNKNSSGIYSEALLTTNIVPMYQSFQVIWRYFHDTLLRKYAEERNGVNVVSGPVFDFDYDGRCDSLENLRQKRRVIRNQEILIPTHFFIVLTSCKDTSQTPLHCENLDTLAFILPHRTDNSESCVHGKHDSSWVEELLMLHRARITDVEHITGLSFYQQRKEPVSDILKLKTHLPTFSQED
Sequence of ENPP6 (Q6UWR7 23-440, species assumed): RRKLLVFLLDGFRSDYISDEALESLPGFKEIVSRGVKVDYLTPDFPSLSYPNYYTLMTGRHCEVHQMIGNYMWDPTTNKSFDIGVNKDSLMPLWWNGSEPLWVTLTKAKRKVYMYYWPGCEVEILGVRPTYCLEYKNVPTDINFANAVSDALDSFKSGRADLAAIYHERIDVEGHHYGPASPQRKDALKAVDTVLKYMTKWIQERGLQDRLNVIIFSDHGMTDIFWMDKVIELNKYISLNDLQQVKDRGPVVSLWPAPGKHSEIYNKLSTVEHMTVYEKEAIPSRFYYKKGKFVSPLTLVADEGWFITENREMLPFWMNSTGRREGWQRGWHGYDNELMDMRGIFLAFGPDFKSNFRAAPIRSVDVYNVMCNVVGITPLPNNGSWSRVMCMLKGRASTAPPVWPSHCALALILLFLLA
Sequence of ENPP3 (O14638 whole entry, species assumed): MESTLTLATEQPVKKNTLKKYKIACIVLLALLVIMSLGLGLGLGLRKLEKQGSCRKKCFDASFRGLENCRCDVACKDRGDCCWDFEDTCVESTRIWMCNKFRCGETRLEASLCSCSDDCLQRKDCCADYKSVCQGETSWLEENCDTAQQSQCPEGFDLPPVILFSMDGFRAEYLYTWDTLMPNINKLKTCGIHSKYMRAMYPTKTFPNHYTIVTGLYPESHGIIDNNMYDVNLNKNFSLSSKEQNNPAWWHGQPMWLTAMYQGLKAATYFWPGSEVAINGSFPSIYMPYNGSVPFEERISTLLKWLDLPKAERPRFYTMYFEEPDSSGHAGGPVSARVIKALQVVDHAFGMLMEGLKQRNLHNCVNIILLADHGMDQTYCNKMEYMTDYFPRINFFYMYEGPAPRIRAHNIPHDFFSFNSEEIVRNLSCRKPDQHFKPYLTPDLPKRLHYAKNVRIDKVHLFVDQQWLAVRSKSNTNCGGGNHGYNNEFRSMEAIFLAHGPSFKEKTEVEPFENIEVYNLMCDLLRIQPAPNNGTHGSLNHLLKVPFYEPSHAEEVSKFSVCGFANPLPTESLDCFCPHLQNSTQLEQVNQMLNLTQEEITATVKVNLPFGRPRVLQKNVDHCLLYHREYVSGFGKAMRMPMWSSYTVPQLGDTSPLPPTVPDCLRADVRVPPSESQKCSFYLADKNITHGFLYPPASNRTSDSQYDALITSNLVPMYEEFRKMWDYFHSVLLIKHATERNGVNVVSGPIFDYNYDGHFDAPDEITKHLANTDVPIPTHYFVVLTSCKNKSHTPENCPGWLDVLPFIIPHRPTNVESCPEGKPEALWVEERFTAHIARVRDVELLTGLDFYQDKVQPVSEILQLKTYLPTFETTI
Sequence of ENPP7 (Q6UWV6 22-458, species assumed): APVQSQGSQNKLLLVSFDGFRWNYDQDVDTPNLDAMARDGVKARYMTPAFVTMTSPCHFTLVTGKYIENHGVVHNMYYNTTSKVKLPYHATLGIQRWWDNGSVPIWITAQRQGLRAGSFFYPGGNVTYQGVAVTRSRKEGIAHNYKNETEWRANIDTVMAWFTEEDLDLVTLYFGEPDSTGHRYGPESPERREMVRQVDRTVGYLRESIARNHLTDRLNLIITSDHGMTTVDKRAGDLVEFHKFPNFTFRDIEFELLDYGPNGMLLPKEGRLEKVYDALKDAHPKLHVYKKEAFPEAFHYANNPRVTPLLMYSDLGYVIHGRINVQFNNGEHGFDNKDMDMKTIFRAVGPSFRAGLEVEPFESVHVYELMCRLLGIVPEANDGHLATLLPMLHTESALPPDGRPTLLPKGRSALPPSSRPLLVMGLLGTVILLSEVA

SMILES: O=C1C2Cc3c(n(Cc4ccc(F)cc4)c4ccccc34)CN2C(=O)N1CCN1CCNCC1 (centres unmarked) [Compound D, 4-(2-(6-(4-fluorobenzyl)-1,3-dioxo-5,6,11a-tetrahydro-1H-imidazo[1′,5′:1,6]pyrido[3,4-b]indol-2(3H, 5H, 6H)-yl)ethyl)piperazin-1-ium chloride]
IC50 (human autotaxin): < 500 nM

SMILES: O=C1C2Cc3c(n(Cc4ccc(F)cc4)c4ccccc34)CN2C(=O)N1CCC1CCNCC1 (centres unmarked) [Compound C, 4-(2-(6-(4-fluorobenzyl)-1,3-dioxo-5,6,11a-tetrahydro-1H-imidazo[1′,5′:1,6]pyrido[3,4-b]indol-2(3H, 5H, 6H)-yl)ethyl)piperidin-1-ium chloride]
IC50 (human autotaxin): < 500 nM

SMILES: CCn1cc(-n2c(Cl)c(Sc3cccc(C(=O)O)n3)c3ccc(Cl)c(F)c32)cn1 [Compound G, 6-((2,6-dichloro-1-(1-ethyl-1H-pyrazol-4-yl)-7-fluoro-1H-indol-3-yl)thio)picolinic acid]
IC50 (human autotaxin): < 500 nM

Now from value to compound, other results behind:

IC50 (human autotaxin): < 500 nM
SMILES: CCCn1cc(-n2c(Cl)c(Sc3cccc(CC(=O)O)c3F)c3ccc(Cl)c(F)c32)cn1 [Compound H, 2-(3-((2,6-dichloro-7-fluoro-1-(1-propyl-1H-pyrazol-4-yl)-1H-indol-3-yl)thio)-2-fluorophenyl)acetic acid]

IC50 (human autotaxin): < 500 nM
SMILES: CCn1cc(-n2c(Cl)c(Sc3cccc(CC(=O)O)c3F)c3ccc(Cl)c(F)c32)cn1 [Compound I, 2-(3-((2,6-dichloro-1-(1-ethyl-1H-pyrazol-4-yl)-7-fluoro-1H-indol-3-yl)thio)-2-fluorophenyl)acetic acid]

IC50 (human autotaxin): < 500 nM
SMILES: CCn1cc(-n2c(Cl)c(Sc3cccc(C(=O)O)c3F)c3ccc(Cl)c(F)c32)cn1 [Compound E, 3-((2,6-dichloro-1-(1-ethyl-1H-pyrazol-4-yl)-7-fluoro-1H-indol-3-yl)thio)-2-fluorobenzoic acid]

IC50 [2]: 15 nM | IC50 (ENPP3): > 10000 nM | IC50 (ENPP7): > 10000 nM | IC50 (ENPP6): > 10000 nM | IC50 (ENPP1): > 10000 nM
SMILES: CCCn1cc(-n2c(Cl)c(Sc3cccc(C(=O)O)c3F)c3ccc(Cl)c(F)c32)cn1 [Compound B, 3-((2,6-dichloro-7-fluoro-1-(1-propyl-1H-pyrazol-4-yl)-1H-indol-3-yl)thio)-2-fluorobenzoic acid]
effect on colitis by reducing ulcer area ([1]; 5 mpk once daily Day 0 to Day 6, DNBS rats): positive effect | body weight loss [1, 5]: no significant effect | stool consistency [1, 5]: no significant effect | colon weight [1, 6]: reduced | ulcer area [1, 6]: reduced | decrease in % PSR positive area (CDAA/HFD fed mice; 10 mpk, liver, CDAA/HFD mice): approximately 35% | liver fibrosis (CDAA/HFD fed mice; 10 mpk, therapeutic dosing, CDAA/HFD mice): significantly reduced | hepatic fibrosis (FIG. 4, percent PSR positive area) (CDAA/HFD fed mice; dosed therapeutically, mouse CDAA/HFD model): attenuate | baseline glucose [3]: decreased | total blood glucose AUC ([3]; i.p. glucose challenge): decreased | colon length [4]: significant increase | colon length, longer than vehicle [4]: at least 30% | liver markers (ALT, AST, AlkP and bilirubin) (dog; dog liver toxicity study): did not exhibit the same effects | increases in liver markers ALT, AST, AlkP and bilirubin (dog; dosed at 100 mpk for 5 days): no increases

IC50 (human autotaxin): < 500 nM
SMILES: CCCn1cc(-n2c(Cl)c(Sc3cccc(C(=O)O)n3)c3ccc(Cl)c(F)c32)cn1 [Compound F, 6-((2,6-dichloro-7-fluoro-1-(1-propyl-1H-pyrazol-4-yl)-1H-indol-3-yl)thio)picolinic acid]
